Reference: PMC8448819, “The Arabidopsis MIK2 receptor elicits immunity by sensing a conserved signature from phytocytokines and microbes” (Nature Communications, 2021)

Assays:
MIK2-BAK1 association = experiment: Co-immunoprecipitation MIK2-BAK1; format: cell-based, Arabidopsis thaliana; conditions: co-IP
Experimental: For co-IP assays in protoplasts, protoplasts were co-transfected with pHBT-35S::MIK2-HA and pHBT-35S::BAK1-FALG or pHBT-35S::SERK4-FLAG at 50 μg DNA for 500 μL protoplasts at the density of 2 × 10^5/mL for each sample and were incubated for 12 h. After treatment with 1 µM SCOOP peptides for 15 min, samples were collected by centrifugation at 200 × g for 2 min and lysed in 300 μL IP buffer (20 mM Tris-HCl, pH 7.5, 100 mM NaCl, 1 mM EDTA, 2 mM DTT, 10% [v/v] Glycerol, 0.5% [v/v] Triton X-100 and protease inhibitor cocktail from Sigma) by vortexing. After centrifugation at 10,000 × g for 10 min at 4 °C, 30 μL of supernatant was collected for input controls. The remaining supernatant was pre-incubated with protein-G-agarose beads at 4 °C for 1 h with gentle shaking at […] on a rocker. IP was carried out with α-FLAG agarose for 3 h at 4 °C. Beads were collected by 500 × g centrifugation for 2 min and washed three times with washing buffer (20 mM Tris-HCl, pH 7.5, 100 mM NaCl, 1 mM EDTA, 0.1% [v/v] Triton X-100) and once with 50 mM Tris-HCl, pH 7.5. Immunoprecipitated proteins and input proteins were analyzed by immunoblotting with α-HA (1:3000; Roche, Cat # 12013819001) or α-FLAG antibodies (1:3000; Sigma-Aldrich, Cat # A8592).
For co-IP assays in transgenic seedlings, leaves of 4-week-old pMIK2::MIK2-GFP transgenic plants were hand-inoculated with 1 μM SCOOP10^B or SCOOP12 and were treated for 30 min, followed by total protein isolation with extraction buffer (50 mM Tris-HCl, pH 7.5, 150 mM NaCl, 1% [v/v] NP-40 and 1:200 protease inhibitor cocktail from Sigma). Co-IP was carried out the same as for co-IP with protoplasts except that GFP-Trap agarose beads (Chromotek) were used instead. Immunoprecipitated proteins and input proteins were analyzed by immunoblotting with α-GFP (1:3500; Roche, Cat # 11814460001) or α-BAK1 antibodies (1:2000)[64].

[1] = test system: bik1/pbl1 mutant seedlings; experiment: Root growth assay, bik1/pbl1 mutant; format: in vivo, Arabidopsis thaliana; conditions: bik1/pbl1, 1 µM
Description: The Arabidopsis thaliana accession Columbia-0 (Col-0) was used as wild type (WT). T-DNA insertion mutants of mik2-1 (SALK_061769), mik2-2 (SALK_046987), mik2-like (SALK_112341), and rlk7-3 (SALK_120595) were obtained from the Nottingham Arabidopsis Stock Centre (NASC). The fls2 (SALK_141277), bak1-4, bik1-1/pbl1-1, bak1-5/serk4-1, rbohd mutants, and the transgenic line expressing p35S::GFP have been reported previously[19],[62],[63]. The hae/hsl2 mutant was kindly provided by Dr. Reidunn B. Aalen (University of Oslo, Norway), the pepr1-2/pepr2-2 (pepr1,2) mutant by Dr. Zhi Qi (Inner Mongolia University, China), the scoop12 mutant by Dr. Sébastien Aubourg (INRA, France), a transgenic line expressing p35S::Aequorin by Dr. Marc Knight (Durham University, UK), transgenic line expressing pMYB51::GUS by Dr. Frederick M. Ausubel (Harvard Medical School, USA). […]
Cold stratified seeds were surface-sterilized with 70% (v/v) ethanol for 5 min and were sown on ½MS plates with or without peptides at indicated concentrations. Ten-day-old seedlings grown on plates vertically in a growth chamber were photographed, and the root lengths of seedlings were measured using Image J (http://rsb.info.nih.gov/ij/).

[2] = test system: Arabidopsis WT (Col-0) seedlings; format: in vivo, Arabidopsis thaliana
[3] = test system: gene expression, RLK7^ECD-MIK2^TK/rlk7 seedlings; experiment: RNA-Seq, RLK7^ECD-MIK2^TK/rlk7; format: in vivo, Arabidopsis thaliana; conditions: for gene expression fold change: RLK7ECD-MIK2TK/rlk7, 1 μM PIP1 vs Ctrl, 1 h
Experimental: Seedlings were then treated with or without 1 μM PIP1 or SCOOP12 for 1 or 6 h and harvested for RNA isolation. Total RNAs (5 μg) from two biological replicates were pooled for cDNA library construction. cDNA library preparation and sequencing were carried out on an Illumina HiSeq 4000 platform with 150-nucleotide pair-end reads in LC-BIO (Hangzhou, China). Total reads were mapped to the Arabidopsis genome (TAIR10; www.arabidopsis.org) with Hisat, and the read counts for every gene were generated with StringTie. The expression levels of genes were calculated by quantifying the cDNA fragments per kilobase of transcript per million fragments mapped (FPKM). Differentially expressed genes (DEGs) between different treatments were defined by fold change of read counts at 1 and 6 h compared to that at 0 h (differential expression analysis using edgeR, fold change ≥ 2 with p-value ≤ 0.01). DEGs were listed in Supplementary Data 2.

[4] = test system: Arabidopsis WT (Col-0) seedlings; conditions: RLK7 activation by PIP1; cited from earlier work
Description: (§1) Plant plasma membrane-resident RKs perceive diverse exogenous and endogenous signals via the extracellular domain and activate intracellular responses through the cytoplasmic kinase domain[1]–[3]. The chimeric receptors with the swapped extracellular and intracellular domains between different RKs have been used to study the specificity of signal perception and signaling activation[48]–[52]. The extracellular domains of RKs determine the ligand-binding specificity[50],[51],[53]. The intracellular kinase domains of different RKs also trigger specific responses. For example, the chimeric rec ...

Arabidopsis WT seedlings = conditions: RLK7 activation by PIP1; cited from earlier work
Description: as §1

| Substance | MIK2-BAK1 association (MIK2-BAK1 association; pMIK2::MIK2-GFP/mik2 leaves, 1 μM, 30 min) | MIK2-BAK1 association in protoplasts (MIK2-BAK1 association; protoplasts, MIK2-HA and BAK1-FLAG, 15 min) | root growth inhibition in bik1/pbl1 [1] | root growth retardation, concentration series, WT ([2]; 1 to 100 nM SCOOP10^B) | concentration at which still active ([2]; in vivo) | root growth inhibition ([2]; in vivo) | small peptide genes induced ([3]; RLK7^ECD-MIK2^TK/rlk7, 1 µM PIP1) | expression of SCOOP genes ([3]; RLK7^ECD-MIK2^TK/rlk7, 1 µM PIP1, 0, 1 and 6 h) | SCOOP, STMP and SCOOP/STMP-like genes induced ([3]; RLK7^ECD-MIK2^TK/rlk7, 1 µM PIP1, among 51 induced small peptide genes) | gene expression fold change ([3]; gene AT1G53080) | gene expression fold change ([3]; gene AT5G52400) | gene expression fold change ([3]; gene AT5G52700) | root growth [4] | ROS production (Arabidopsis WT seedlings) |
| --- | --- | --- | --- | --- | --- | --- | --- | --- | --- | --- | --- | --- | --- | --- |
| PNGDIFTGPSGSGHGGGR [SCOOP10B, synthesized SCOOP peptide corresponding to the SxS motif] | stimulated upon the treatment | also observed in protoplasts | significantly compromised in the bik1/pbl1 mutant | more pronounced with the increased concentrations of SCOOP10^B from 1 to 100 nM | 1 nM | inhibited root growth to various degrees, with SCOOP10^B and 13 being the most active | – | – | – | – | – | – | – | – |
| RLASGP(OH)SPRGRGH [PIP1, secreted peptide, ligand of RLK7] | – | – | – | – | – | – | 51 genes | induces the expression of SCOOP genes | 18 genes | 194.45 | 19374.61 | 11109.32 | moderately inhibits root growth | weakly induces ROS production |
